Measured values from patent US20070225312A1, “TERGURIDE / PROTERGURIDE FOR THE TREATMENT OF CHRONIC PAIN” (ERGONEX PHARMA GMBH, priority 2006, published 2007).

Columns and labels:
[1] = test system: patient suffering from fibromyalgia; experiment: Application of proterguride in the case of fibromyalgia (single patient); format: in vivo, human; settings: daily dose 0.5 mg
Method: A patient suffering from fibromyalgia was treated with proterguride.
The patient complained about stomach problems, stomach pains, pains in the chest as well as about swollen breasts and continuous exhaustion and tiredness. The discomforts had persisted for approx. one year. No pretreatment had been realized prior to the treatment with proterguride.
The patient was treated with a daily dose of 0.5 mg of proterguride which was administered in the morning and in the evening. The treatment was realized gradually.
The treatment was realized over a period of 33 weeks and the condition of the patient was examined weekly. After just 12 weeks, the condition had improved, particularly regarding the pains in the chest.

[2] = test system: patient with diabetic neuropathy; experiment: Diabetic neuropathy case (numerical rating scale); format: in vivo, human
Method: About 15 months ago, a diabetic neuropathy was clinically diagnosed in a patient who has been suffering from Type 2 Diabetes for 10 years. The patient was treated with 3×50 mg amitryptiline/day. At the time of the examination, the patient complained about pain conditions associated with burning sensations, shooting or stabbing pains and unpleasant formication, mainly in the feet and with increasing intensity during the night. On the numerical rating scale from 0=no pain to 10=maximum pain intensity, the patient reported mean pain values of 8-9 on average.
Under therapy with terguride (0.5 mg b.i.d.) the pain conditions and the general condition of the patient improved quickly (average pain value of 2-3 on the rating scale).

[3] = test system: patient with postherpetic neuralgia; experiment: Postherpetic neuralgia case; format: in vivo, human; settings: for pains under prior treatment: amitriptyline 3x50 mg/d, subsequently gabapentin 1500 mg daily, considerable deterioration within 10 days
From the text: A patient of normal weight complained about a severe burning sensation and pains in the dermal area of the chest.

[4] = test system: patient suffering from fibromyalgia; experiment: Application of terguride in the case of fibromyalgia (single patient); format: in vivo, human
Method: A patient suffering from fibromyalgia was treated with terguride. The patient complained about chronic pain in the extremities as well as about stomach pains and continuous exhaustion and tiredness. The discomforts had persisted for several months. No pretreatment had been realized prior to the treatment with terguride. The patient was treated with a daily dose of 3 mg of terguride which was administered in the morning and in the evening in single doses of 1.5 mg. The treatment was realized gradually. […] The treatment was realized over a period of 25 weeks and the condition of the patient was examined weekly.

[5] = test system: patient suffering from mastalgia and stomach pains due to premenstrual syndrome; experiment: Application of terguride in the case of mastalgia/premenstrual syndrome (single patient); format: in vivo, human
Method: A patient suffering from mastalgia and stomach pains due to premenstrual syndrome was treated with terguride. […] The therapy started in the middle of the cycle. Twice a day, a tablet containing 0.5 mg terguride was administered to the patient over a period of 3 months. The pain severity was observed by means of a visual analogue scale. During the therapy, the pains in the chest and stomach area decreased and the patient was able to renounce on the administration of additional pain medication.

[6] = test system: patient suffering from migraine; experiment: Application of terguride for the prophylaxis of migraine (single patient, diary); format: in vivo, human; settings: daily dose 2 mg
Method: A patient, suffering from migraine on average four times a month, was treated with terguride. The patient was treated with a daily dose of 2 mg terguride which was administered in the morning and in the evening in single doses of 1 mg. The treatment was realized gradually. […] The patient was treated over a period of 24 weeks. The frequency, duration and severity of the migraine attacks were recorded by means of a diary. Within 4 weeks following the start of the treatment, a reduction of 40% of the frequency of migraine attacks could be shown, as well as a reduction of the attack duration from cumulative 12 days before the therapy to 8 days under terguride. The consumption of pain medication under therapy with terguride was reduced by 46%. […] The patient reported an improvement of […] general condition.

[7] = test system: tumor patient with bone pains from bone metastases; experiment: Tumor associated pain case; format: in vivo, human; settings: 0.5 mg bid
Method: A tumor patient suffering from a pancreatic carcinoma complained about bone pains resulting from the development of bone metastases. The patient was treated with ibandronate. Additionally, the treatment was realized with ibuprofen, acetaminophen and desipramine. […] After the start of the therapy with terguride (0.5 mg bid) the patient's pain conditions were reduced and the well-being improved continuously.

[8] = test system: patient with migrainous headaches; experiment: Migraine prophylaxis case; format: in vivo, human
Method: The patient suffered from migrainous headaches with an average of 4-5 attacks per month, lasting on average between 3 and 8 hours. For acute pain treatment during an attack, a dosage of 50 mg of sumatriptan was administered orally. For the purpose of migraine prophylaxis, the patient was treated with topiramate in a dosage of 200 mg per day. […] Under administration of terguride (2×0.25 mg per day), the number of pain attacks decreased considerably to only one pain attack within 6 weeks with low pain intensity; also, the well-being of the patient improved within 2 weeks after the start of the therapy.

[9] = test system: patient with herniated disc, chronic pain; experiment: Herniated disc chronic pain case, co-therapy with oxycodone

CCCN1C[C@@H](NC(=O)N(CC)CC)C[C@@H]2c3cccc4[nH]cc(c34)C[C@H]21 [proterguride]
condition, particularly pains in the chest ([1]; after 12 weeks): improved
swelling of breasts ([1]; after 12 weeks): reduction of the swelling
chronic tiredness and exhaustion and stomach pains ([1]; after 20 weeks): largely disappeared
overall condition of the patient ([1]; after 30 weeks): in the same condition as before the onset of the disease

CN(C)CCC=C1c2ccccc2CCc2ccccc21 [amitriptyline, reference compound]
mean pain values on numerical rating scale (0=no pain to 10=maximum pain intensity) ([2]; at examination, patient treated with 3x50 mg/day, before terguride): 8-9
pains under prior treatment [3]: only to a short-term improvement

NCC1(CC(=O)O)CCCCC1 [gabapentin, reference compound]
pains under prior treatment [3]: only to a short-term improvement

CCN(CC)C(=O)N[C@H]1C[C@@H]2c3cccc4[nH]cc(c34)C[C@H]2N(C)C1 [terguride]
condition, in particular pains in the extremities and stomach pains (visual analog scale) ([4]; daily dose 3 mg (2 x 1.5 mg), after 10 weeks): visibly improved
chronic conditions of tiredness and exhaustion ([4]; daily dose 3 mg, after 17 weeks): nearly impossible to detect
general condition and joy of life ([5]; 0.5 mg twice a day, 3 months): considerably improved
pains in the chest and stomach area (visual analogue scale) ([5]; 0.5 mg twice a day, 3 months): decreased
side effects ([5]; 0.5 mg twice a day, 3 months): No side effects were observed
symptoms during the following months under therapy ([5]; continued therapy): remained symptom-free
side effects ([6]; 24 weeks): No side effects
attack duration (cumulative) ([6]; under terguride, versus 12 days before the therapy): 8 days
reduction of consumption of pain medication ([6]; under therapy): 46%
reduction of the frequency of migraine attacks ([6]; within 4 weeks following start of treatment): 40%
side effects ([2]; 0.5 mg b.i.d.): No side effects
loss of efficacy under continuous treatment ([2]; 0.5 mg b.i.d., continuous treatment): No signs of an loss of efficacy
average pain value on numerical rating scale (0=no pain to 10=maximum pain intensity) ([2]; under terguride 0.5 mg b.i.d.): 2-3
side effects ([3]; 0.5 mg t.i.d.): No side effects were observed
pain on gradual dose reduction (treatment-free interval) ([3]; after 3 months, daily dose gradually reduced): the pain increased quickly
pain presentation ([3]; terguride 0.5 mg t.i.d.): improved in a fast and continuous manner
pain conditions [7]: reduced
side effects [7]: No side effects were observed
side effects ([8]; terguride 2x0.25 mg per day): No side effects were observed
time to improvement of well-being after start of therapy ([8]; terguride 2x0.25 mg per day): ≤ 2 weeks
number of pain attacks within 6 weeks ([8]; terguride 2x0.25 mg per day, before: 4-5 attacks per month, low pain intensity): one
migraine presentation after discontinuation (treatment-free interval) ([8]; terguride discontinued): the migraine presentation returned
efficacy under chronic therapy ([9]; chronic therapy): remained efficient
pain ([9]; co-therapy terguride 2x0.5 mg/day with oxycodone 2x20 mg/day): almost completely pain-free

COc1ccc2c3c1O[C@H]1C(=O)CC[C@@]4(O)[C@@H](C2)N(C)CC[C@]314 [oxycodone, reference compound]
pain intensity ([9]; oxycodone alone, 2x10 mg increased to 2x40 mg per day): considerably reduced
constipation complaints ([9]; oxycodone alone, longer treatment, required dose reduction to 2x20 mg/day): the more complaints occurred due to constipation

CC1(C)O[C@@H]2[C@@H](CO[C@@]3(COS(N)(=O)=O)OC(C)(C)O[C@@H]23)O1 [topiramate, reference compound]
migraine activity ([8]; topiramate 200 mg per day): No reduction of the migraine activity
adverse effects leading to discontinuation ([8]; topiramate 200 mg per day, after 3 months): nausea and weight loss
